{"source": "patent US20160251403A1", "about": "“PEPTIDE COMBINATIONS AND USES THEREOF IN TREATING DUST MITE ALLERGY” (ALK-ABELLO A/S, priority 2013, published 2016)", "target": "T1, DPA10202-DPB10501 (Homo sapiens, UniProt P04440+P20036, A42M/A65V/A84E/F191V/F64L/G113D/G114E/K142R/L158P/M116V/M62Q/P115A/Q81R/R125K/T114A/T199I/T259P/V234M)", "T1 sequence (P04440 30-258 A65V/A84E/F64L/G113D/G114E/M116V/P115A/R125K/T199I/V234M)": "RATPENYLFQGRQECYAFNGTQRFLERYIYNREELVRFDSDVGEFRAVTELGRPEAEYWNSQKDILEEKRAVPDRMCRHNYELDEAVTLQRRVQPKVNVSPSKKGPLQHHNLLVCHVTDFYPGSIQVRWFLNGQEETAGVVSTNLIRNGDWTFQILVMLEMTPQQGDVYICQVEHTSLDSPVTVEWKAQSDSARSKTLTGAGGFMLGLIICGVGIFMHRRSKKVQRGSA", "T1 sequence (P20036 29-260 A42M/F191V/K142R/L158P/M62Q/Q81R/T114A/T259P)": "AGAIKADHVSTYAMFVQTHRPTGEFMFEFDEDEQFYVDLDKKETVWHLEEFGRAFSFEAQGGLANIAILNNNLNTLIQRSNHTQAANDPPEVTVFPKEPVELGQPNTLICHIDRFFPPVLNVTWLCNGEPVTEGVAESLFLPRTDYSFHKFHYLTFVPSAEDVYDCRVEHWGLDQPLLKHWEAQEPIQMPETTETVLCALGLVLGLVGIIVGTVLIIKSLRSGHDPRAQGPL", "assay": "Competitive MHC class II binding assay, DPA10202-DPB10501", "conditions": "positive binding at cutoff 1000 nM; read-out: HLA-DPA10202-DPB10501", "note": "No end group written: not given here."}
{"sequence": "LVGDNGVLASAIATHAKIRD [pep-110]", "values": [{"measurement": "IC50", "result": "< 1", "unit": "µM"}]}
